Laboratory results as given in PubChem BioAssay (NCI).
“And” between values parts separate entries of the source, which are not always exact repeats. Equal entries are not always repeated.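 These data come from cells grown in 96-well plates and exposed to compound for 48 hours at five concentrations. Abbreviation: GI50, concentration required for 50% inhibition of growth. TGI marks complete inhibition of growth.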

Tested on: MDA-MB-468 breast
Assay: DTP human tumour cell line panel, 48 h

**Q.** Which results are given for `NC(C/[N+]([O-])=N/O)C(=O)O` (configuration not stated)?
**A.** GI50: 7310 nM; TGI: > 500000 nM

**Q.** How did the GI50 turn out when `CN(Cc1cnc(N)nc1N)c1ccc(C(=O)O)cc1` was run?
**A.** Its GI50 is over 100000 nM.

**Q.** And the TGI?
**A.** The TGI was over 100000 nM.

**Q.** With `CC1=CC[C@@H]2C(C)(C)C(=O)CC[C@@]2(C)[C@@H]1COc1ccc2ccc(=O)oc2c1` as the compound, how does the GI50 read?
**A.** Its GI50 is 4830 nM.

**Q.** What about the TGI of the same compound?
**A.** Its TGI is 35900 nM.

**Q.** What does the source list for `Cc1ccc(NC(=O)c2ccc(CN3CCN(C)CC3)c(C(F)(F)F)c2)cc1Oc1ccc(-c2[nH]nc3ncnc(N)c23)cc1`?
**A.** GI50: 12200 nM; TGI: 43900 nM

**Q.** How did the GI50 turn out when `Cc1c(C)c2c(c(C)c1NC(=O)/C=C\C(=O)O)CCC(C)(CCCC(C)CCCC(C)CCCC(C)C)O2` (configuration not stated) was run?
**A.** Its GI50 is 1990 nM.

**Q.** What about the TGI of the same compound?
**A.** The TGI was 3980 nM.

**Q.** For `CN(CCC#N)c1ccc(/C=C(\C#N)c2cccc(C(F)(F)F)c2)cc1`, which GI50 is on record?
**A.** Its GI50 is 797 nM.

**Q.** And the TGI?
**A.** The TGI was over 100000 nM.

**Q.** What does the source list for `IP(CCCCCCCCCCSc1n(Cc2ccc3ccccc3c2)c(-c2ccccc2)c(-c2ccccc2)[n+]1Cc1ccc2ccccc2c1)(c1ccccc1)(c1ccccc1)c1ccccc1`?
**A.** GI50: 267 nM; TGI: 918 nM

**Q.** What does the source list for `COc1cc2ccccc2c2cc([N+](=O)[O-])oc12`?
**A.** GI50: 1030 nM; TGI: 2360 nM

**Q.** What does the source list for `Cc1onc(-c2c(F)cccc2Cl)c1-c1ncc(-c2ccc(Cl)cc2)o1`?
**A.** GI50: 3490 nM; TGI: > 100000 nM

**Q.** How did the GI50 turn out when `O=[N+]([O-])c1cc([N+](=O)[O-])c(Cl)c(Cl)c1Cl` was run?
**A.** The GI50 was 250 nM.

**Q.** And the TGI?
**A.** The TGI was 723 nM.

**Q.** Which GI50 does the source give for `COc1ccc(-c2nn(-c3ccc(NC(=O)c4ccc(Cl)c(C(F)(F)F)c4)cc3)cc2-c2ccncc2)cc1Cl` here?
**A.** Its GI50 is 1600 nM.

**Q.** And the TGI?
**A.** The TGI was over 100000 nM.

**Q.** Which GI50 does the source give for `O=C(CCCn1c(=O)c2sc3ccccc3c2n2nnc(-c3ccccc3)c12)NCCc1cnc[nH]1` here?
**A.** The GI50 was 1690 nM.

**Q.** And the TGI?
**A.** Its TGI is 3680 nM.

**Q.** For `Cc1cc2cccnc2c2ncccc12`, which GI50 is on record?
**A.** The GI50 was 2030 nM.

**Q.** What about the TGI of the same compound?
**A.** Its TGI is 5480 nM.

**Q.** With `Cc1cc2nc(C(Cl)Cl)nc(-c3cccs3)n2n1` as the compound, how does the GI50 read?
**A.** The GI50 was 314 nM.

**Q.** What about the TGI of the same compound?
**A.** Its TGI is 1540 nM.

**Q.** Which results are given for `CCN(CC)C(=O)CC1=C(C)/C(=C/c2[nH]c(-c3ccc[nH]3)cc2OC)N=C1C`?
**A.** GI50: 572 nM; TGI: 17900 nM

**Q.** `COc1cc(-c2n/c(=C\c3c(O)[nH]c4ccc(Cl)cc34)cc3c2=Nc2ccccc2-3)cc(OC)c1OC` was tested. Which GI50 did it give?
**A.** The GI50 was 1730 nM.

**Q.** What about the TGI of the same compound?
**A.** Its TGI is 4260 nM.

**Q.** With `O=C(/C=C1\C(=O)N(Cc2ccc([N+](=O)[O-])cc2)c2ccccc21)c1ccc(OCCN2CCCCC2)cc1` as the compound, how does the GI50 read?
**A.** The GI50 was 1110 nM.

**Q.** And the TGI?
**A.** Its TGI is 2490 nM.

**Q.** Which GI50 does the source give for `Cn1cc(C2=C(c3c4n(c5ccccc35)CCCC4)C(=O)NC2=O)c2ccccc21` here?
**A.** The GI50 was 5310 nM.

**Q.** What about the TGI of the same compound?
**A.** Its TGI is over 25000 nM.

**Q.** Which results are given for `COc1cc(NS(C)(=O)=O)ccc1Nc1c2ccccc2nc2c(C)cccc12`?
**A.** GI50: 236 nM and 298 nM; TGI: 779 nM and 1670 nM

**Q.** What does the source list for `Cc1cc(Cc2cc(C)c(O)c(C)c2)cc(C)c1O`?
**A.** GI50: 2550 nM; TGI: 9750 nM

**Q.** With `COc1ccc(C[n+]2c3ccccc3n3c4ccc(N)cc4ccc32)c(OC)c1OC` as the compound, how does the GI50 read?
**A.** Its GI50 is 275 nM.

**Q.** What about the TGI of the same compound?
**A.** The TGI was 1420 nM.

**Q.** How did the GI50 turn out when `NC(=O)c1cc(-c2ccncc2)cc(-c2ccccc2)c1N` was run?
**A.** The GI50 was 6440 nM.

**Q.** And the TGI?
**A.** Its TGI is over 25000 nM.

**Q.** For `COc1cc(/C=C/C(=O)c2cc(OC)c(OC)c(OC)c2)ccc1Oc1nc(NCCO)nc(N2CCOCC2)n1`, which GI50 is on record?
**A.** The GI50 was 1710 nM.

**Q.** And the TGI?
**A.** Its TGI is 4300 nM.

**Q.** For `N#CC(C#N)=Cc1c(-c2ccccc2)[nH]c2ccccc12`, which GI50 is on record?
**A.** Its GI50 is 955 nM.

**Q.** What about the TGI of the same compound?
**A.** Its TGI is 5210 nM.

**Q.** Which GI50 does the source give for `C=C1C(=O)O[C@H]2[C@H]1CC/C(Cn1cc(CNCCc3c[nH]c4ccc(Cl)cc34)nn1)=C\CC[C@@]1(C)O[C@@H]21` here?
**A.** Its GI50 is 2190 nM.

**Q.** And the TGI?
**A.** Its TGI is 9190 nM.

**Q.** Which results are given for `COc1cc(-c2nn(-c3ccc(NC(=O)Nc4ccc(Cl)c(Cl)c4)cc3)cc2-c2ccncc2)ccc1Cl`?
**A.** GI50: 2150 nM; TGI: 5720 nM

**Q.** How did the GI50 turn out when `COc1cc(N2CCN(C(C)C)CC2)ccc1Nc1nc(Nc2cccc3ncccc23)c2cc[nH]c2n1` was run?
**A.** Its GI50 is 3590 nM.

**Q.** What about the TGI of the same compound?
**A.** Its TGI is 8840 nM.

**Q.** Which GI50 does the source give for `Cc1oc2nc[nH]c(=O)c2c1C(=O)/C=C/c1ccc(Cl)cc1` here?
**A.** Its GI50 is 1380 nM.

**Q.** What about the TGI of the same compound?
**A.** Its TGI is 3870 nM.

**Q.** `C=CCn1c(=O)c2cnc(Nc3ccc(N4CCN(C)CC4)cc3)nc2n1-c1ccc2c(n1)[C@@](O)(CC)CC2` was tested. Which GI50 did it give?
**A.** The GI50 was 189 nM.

**Q.** What about the TGI of the same compound?
**A.** The TGI was 698 nM.

**Q.** For `COc1cc2c(c(OC)c1OC)C(=O)CC(c1cccc(NC(=O)c3ccc(Br)cc3)c1)O2` (configuration not stated), which GI50 is on record?
**A.** Its GI50 is 1850 nM.

**Q.** What about the TGI of the same compound?
**A.** The TGI was 8010 nM.

**Q.** Which results are given for `O=C(/C=C/C12c3ccccc3C(c3ccccc31)C1C(=O)N(c3ccccc3)C(=O)C12)c1ccc(Cl)cc1` (configuration not stated)?
**A.** GI50: 1880 nM; TGI: 5870 nM
